The results in this text go back to patent US20250074891A1 (Anaxis Pharma Pty Ltd., priority 2021, published 2025).

pIC50, pKd: −log10 of the molar value. Read-outs that look alike come from different tables or passages of the source. Where only a bound is given, the exact number is not on record here.

The target in assay [1] is endogenous MLKL in U937 (Homo sapiens (Human), UniProt Q8NB16). As to the kind of experiment: Degradation assay: degradation of endogenous MLKL in human cells (Western blot). As to conditions: 24 h incubation, read-out: Degradation of endogenous MLKL in U937 (DC50 cell-based assay in μM). The procedure:
DEGRADATION ASSAY: Screening Compounds Procedure to Evaluate the Activity of Compounds in Degrading Endogenous MLKL in Human Cell
The human monocyte cell line (U937) was seeded on the day of the experiment in a 24-well plate at a cell density of 5*10^5 cells per well in a volume of 0.5 mL per well.
The compound was diluted in DMSO with a starting concentration of 10 mM and titrated stepwise with a dilution of 1:5. 0.5 μL of the compound dilution was added to the appropriate well to achieve a final concentration of 10; 2; 0.4; 0.08 and 0.016 μM. A DMSO only well was included as control.
The cells were incubated for 24 h in the presence of the compound at 37° C. and 10% CO2.
After the 24 h incubation period, the medium was removed and cells washed with 0.5 mL PBS. The cells were then lysed directly in 60 μL of 1×SDS gel loading buffer.
The cell lysate was heat-denatured at […] for 10 min. 10 μL of lysate per well were run on 18-well 4-15% Criterion TGX stain free gels (BIO-RAD). The proteins were then transferred onto nitrocellulose membrane with a wet transfer protocol in the Criterion Blotter (BIO-RAD).
Membranes were blocked with 5% skim milk in TBST. Primary antibody against MLKL (clone 3H1, MABC604 Merck) was used at 1:2000 dilution in TBST with 1% BSA and left shaking over night at 4° C. After washes with TBST, the membranes were incubated with goat anti-rat IgG HRP-conjugated antibody (Southern Biotech) in 1% skim milk TBST at 1:10000 dilution for 1 h at room temperature. After TBST washes the bands were imaged on the ChemiDoc MP Imaging Systm (BIO-RAD) with Immobilion Western Chemiluminescent HRP Substrate Forte (Millipore). The loading control GAPDH was probed for with rabbit anti-GAPDH (CST 14C10) at 1:2000 dilution in 1% BSA TBST over night at 4° C. TBST washes were followed by incubation with goat anti-rabbit IgG HRP-conjugated antibody (Southern Biotech) in 1% skim milk TBST at 1:10000 dilution for 1 h at room temperature followed by TBST washes. The signal was detected as described above.
The band intensity was measured in the ImageLab Software (BIO-RAD) and the MLKL values adjusted for loading with GAPDH. The percentage of degradation was calculated by normalizing the compound treated values to the DMSO only control.
(In western blotting, separated proteins are transferred to a membrane and probed.)

Assay [2] concerns the target MLKL (full length) (Homo sapiens (Human), UniProt Q8NB16). As to the kind of experiment: KINOMEscan binding assay, MLKL (full length). The procedure:
(§1) Kinase assays. For most assays, kinase-tagged T7 phage strains were grown in parallel in 24-well blocks in an E. coli host derived from the BL21 strain. E. coli were grown to log-phase and infected with T7 phage from a frozen stock (multiplicity of infection=0.4) and incubated with shaking at 32° C. until lysis (90-150 minutes).
(§2) The Hill Slope was set to −1.

The test system of assay [3] is U937 cells. The assay is described as follows: Counter screen: cell viability without TSQ cocktail (off-target effect). Also on record: species or system human. The procedure: Counter screen: In parallel, all compounds were tested for their ability to affect cell viability. The same U937 cells were treated with compound in DMSO without the TSQ cocktail. This counter screen enabled evaluation of off-target effects. In this case, cell viability was measured by CelltiterGlo.
In general terms: Counterscreens check selectivity or assay interference.

Assay [4] relates to U937 human histiocytic leukemia cell line. The assay is described as follows: Cellular assay: inhibition of TSQ induced necroptosis (CellTitre-Glo). As to conditions: U937 cells, TSQ cocktail, 48 hours, read-out: Inhibition of TSQ-induced necroptosis (IC50 cell-based assay). The gist of the method:
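U937 cells (20,000/well) pre-dosed with compound (10-point, 1:3 from 36 μM, 0.3% DMSO), then TSQ (hTNF-Fc 100 ng/ml, Smac mimetic 500 nM, Q-VD-OPh 10 μM) for 48 h at 37 °C. Viability by CellTiter-Glo luminescence, normalised to DMSO (100%) and DMSO+TSQ (0%); IC50 from 4-parameter fit.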

Assay [5] addresses RIP1 (Homo sapiens (Human), UniProt Q13546). As to the kind of experiment: KINOMEscan binding assay, RIP1. As to conditions: Table 35.
Assay [6] deals with RIP3 (Homo sapiens (Human), UniProt Q9Y572). As to the kind of experiment: KINOMEscan binding assay, RIP3. The settings on record: Table 35. The procedure: as §1, §2
RIP3, sequence (Q9Y572 whole entry): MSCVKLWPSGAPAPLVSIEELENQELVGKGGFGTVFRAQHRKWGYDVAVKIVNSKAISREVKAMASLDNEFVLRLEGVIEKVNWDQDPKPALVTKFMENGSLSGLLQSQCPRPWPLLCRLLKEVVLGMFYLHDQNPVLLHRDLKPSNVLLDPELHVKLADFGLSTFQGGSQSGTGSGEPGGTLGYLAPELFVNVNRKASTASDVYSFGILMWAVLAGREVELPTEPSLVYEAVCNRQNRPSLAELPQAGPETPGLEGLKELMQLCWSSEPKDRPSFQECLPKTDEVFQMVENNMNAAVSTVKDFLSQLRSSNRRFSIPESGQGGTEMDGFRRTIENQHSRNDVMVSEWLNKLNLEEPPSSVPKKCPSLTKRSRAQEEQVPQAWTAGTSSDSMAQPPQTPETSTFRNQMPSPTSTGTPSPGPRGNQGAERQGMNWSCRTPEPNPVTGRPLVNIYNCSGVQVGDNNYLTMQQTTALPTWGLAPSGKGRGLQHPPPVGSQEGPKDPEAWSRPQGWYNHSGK
Where [7] appears, read: Homo sapiens, U-937, Table 38, read-out: Off-target effect (IC50 cell-based assay).
Where [8] appears, read: Homo sapiens, U-937, Table 37, read-out: Off-target effect (IC50 cell-based assay).

RIP1, sequence (Q13546 whole entry): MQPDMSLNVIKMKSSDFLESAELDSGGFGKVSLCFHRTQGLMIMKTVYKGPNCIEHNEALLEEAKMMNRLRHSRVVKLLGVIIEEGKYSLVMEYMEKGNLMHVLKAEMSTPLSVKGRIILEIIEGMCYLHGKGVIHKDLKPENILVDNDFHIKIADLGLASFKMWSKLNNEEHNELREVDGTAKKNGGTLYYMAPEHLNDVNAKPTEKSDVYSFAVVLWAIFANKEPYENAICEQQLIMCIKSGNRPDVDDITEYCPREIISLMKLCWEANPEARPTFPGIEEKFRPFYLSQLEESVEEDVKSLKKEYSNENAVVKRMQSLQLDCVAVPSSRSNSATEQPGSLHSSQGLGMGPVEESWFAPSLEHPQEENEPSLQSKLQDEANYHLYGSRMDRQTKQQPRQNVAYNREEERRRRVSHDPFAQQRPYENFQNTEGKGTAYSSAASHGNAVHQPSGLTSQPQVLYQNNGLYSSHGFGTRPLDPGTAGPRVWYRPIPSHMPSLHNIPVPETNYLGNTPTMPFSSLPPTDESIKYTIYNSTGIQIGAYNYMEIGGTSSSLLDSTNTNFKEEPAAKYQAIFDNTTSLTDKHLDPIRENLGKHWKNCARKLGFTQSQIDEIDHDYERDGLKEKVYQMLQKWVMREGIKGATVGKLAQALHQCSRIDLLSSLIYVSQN
MLKL (full length), sequence (Q8NB16 whole entry): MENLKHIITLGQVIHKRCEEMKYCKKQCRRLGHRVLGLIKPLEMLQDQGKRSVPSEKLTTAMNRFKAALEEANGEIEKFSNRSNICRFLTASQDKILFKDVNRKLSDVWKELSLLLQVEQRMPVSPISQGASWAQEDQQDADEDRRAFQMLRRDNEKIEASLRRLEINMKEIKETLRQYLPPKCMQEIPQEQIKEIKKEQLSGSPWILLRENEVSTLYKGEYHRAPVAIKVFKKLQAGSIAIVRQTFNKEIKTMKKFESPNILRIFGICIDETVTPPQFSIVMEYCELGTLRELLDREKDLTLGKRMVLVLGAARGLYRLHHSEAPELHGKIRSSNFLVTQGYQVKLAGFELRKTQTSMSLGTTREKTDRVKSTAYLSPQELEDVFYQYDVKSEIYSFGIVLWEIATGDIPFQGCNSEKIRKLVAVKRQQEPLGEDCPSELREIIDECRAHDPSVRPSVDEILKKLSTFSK
endogenous MLKL in U937, sequence (Q8NB16 whole entry): as above

Take `CCS(=O)(=O)Nc1ccc(-c2n[nH]c(Nc3ccc(C(=O)NCC(=O)N[C@@H](C(=O)N4C[C@@H](O)C[C@@H]4C(=O)NCc4ccc(-c5scnc5C)cc4)C(C)(C)C)cn3)c2C(N)=O)cc1O[C@H](C)c1ccc(F)cc1` (stereo in doubt) [Compound 1026, 3-{4-ethanesulfonamido-3-[(1R)-1-(4-fluorophenyl)ethoxy]phenyl}-5-({5-[({[(2R)-1-[(2R,4S)-4-hydroxy-2-({[4-(4-methyl-1,3-thiazol-5-yl)phenyl]methyl}carbamoyl)pyrrolidin-1-yl]-3,3-dimethyl-1-oxobutan-2-yl]carbamoyl}methyl)carbamoyl]pyridin-2-yl}amino)-1H-pyrazole-4-carboxamide]: the DC50 in assay [1] lay within 1 to 10 µM. The compound further showed a pKd in assay [2] (Table 36) of more than 8.00. Further, the negative-log IC50 (pIC50) in assay [3] (setting [7]) was less than 5.00; in assay [4] (Homo sapiens, U-937, Table 38), 5.00 to 6.00.

With `CCS(=O)(=O)Nc1ccc(-c2n[nH]c(Nc3ccc(C(=O)NCCCCC(=O)N[C@@H](C(=O)N4C[C@@H](O)C[C@@H]4C(=O)NCc4ccc(-c5scnc5C)cc4)C(C)(C)C)cn3)c2C(N)=O)cc1OC(C)c1ccc(F)cc1` (stereo in doubt) [Compound 1029, 3-{4-ethanesulfonamido-3-[(1R)-1-(4-fluorophenyl)ethoxy]phenyl}-5-({5-[(4-{[(2R)-1-[(2R,4S)-4-hydroxy-2-({[4-(4-methyl-1,3-thiazol-5-yl)phenyl]methyl}carbamoyl)pyrrolidin-1-yl]-3,3-dimethyl-1-oxobutan-2-yl]carbamoyl}butyl)carbamoyl]pyridin-2-yl}amino)-1H-pyrazole-4-carboxamide], in assay [1], the half-maximal degradation concentration (DC50) fell in the range of 1 to 10 µM. In assay [2] (Table 36), this compound gave a negative logarithm of the Kd (pKd) of more than 8.00. For the same compound, the pIC50 in assay [3] (setting [7]) is less than 5.00; in assay [4] (Homo sapiens, U-937, Table 38), more than 6.00.

In the case of `NC(=O)c1c(-c2ccc(NS(=O)(=O)Cc3cccc(Cl)c3)cc2)n[nH]c1Nc1cccc(C(F)(F)F)n1` [Compound 9, 3-(4-(((3-chlorophenyl)methyl)sulfonamido)phenyl)-5-((6-(trifluoromethyl)pyridin-2-yl)amino)-1H-pyrazole-4-carboxamide], the figures for the negative logarithm of the Kd (pKd) in assay [2] (Table 35), in assay [5] and in assay [6] were more than 8.00, less than 4.52 and less than 4.52, respectively. The pIC50 in assay [3] (setting [8]) was less than 4.52; in assay [4] (Homo sapiens, U-937, Table 37) it was 6.00 to 8.00.

Consider `CCS(=O)(=O)Nc1ccc(-c2n[nH]c(Nc3cncc(C)n3)c2C(N)=O)cc1` [Compound 84, 3-(4-(ethylsulfonamido)phenyl)-5-((6-methylpyrazin-2-yl)amino)-1H-pyrazole-4-carboxamide], for which the pKd was more than 8.00 in assay [2] (Table 35), less than 4.52 in assay [5] and 4.52 to 6.00 in assay [6]. For the same compound, the pIC50 in assay [3] (setting [8]) is less than 4.52; in assay [4] (Homo sapiens, U-937, Table 37), 4.52 to 6.00.

In the case of `CCS(=O)(=O)Nc1ccc(-c2c(C(N)=O)c(Nc3cnccn3)nn2C)cc1` [Compound 222, 5-(4-(ethylsulfonamido)phenyl)-1-methyl-3-(pyrazin-2-ylamino)-1H-pyrazole-4-carboxamide], the values for the negative-log Kd (pKd) in assay [2] (Table 35), in assay [5] and in assay [6] were more than 8.00, less than 4.52 and less than 4.52, respectively. The negative-log IC50 (pIC50) was less than 4.52 in assay [3] (setting [8]) and 4.52 to 6.00 in assay [4] (Homo sapiens, U-937, Table 37).

Regarding `C[C@H](Oc1cc(-c2n[nH]c(Nc3cnccn3)c2C(N)=O)ccc1NS(=O)(=O)CC(F)(F)F)c1cccc(F)c1` [Compound 265, 3-{3-[(1S)-1-(3-fluorophenyl)ethoxy]-4-(2,2,2-trifluoroethanesulfonamido)phenyl}-5-[(pyrazin-2-yl)amino]-1H-pyrazole-4-carboxamide], the results for the pKd in assay [2] (Table 35), in assay [5] and in assay [6] were more than 8.00, less than 4.52 and less than 4.52, respectively. The pIC50 is less than 4.52 in assay [3] (setting [8]) and 4.52 to 6.00 in assay [4] (Homo sapiens, U-937, Table 37).

With `Cc1cc(Nc2[nH]nc(-c3ccc(NS(=O)(=O)C(F)F)c(O[C@@H](C)c4ccc(F)cc4)c3)c2C(N)=O)nn1C` [Compound 285, (S)-3-(4-((difluoromethyl)sulfonamido)-3-(1-(4-fluorophenyl)ethoxy)phenyl)-5-((1,5-dimethyl-1H-pyrazol-3-yl)amino)-1H-pyrazole-4-carboxamide], the figures for the negative-log Kd (pKd) in assay [2] (Table 35), in assay [5] and in assay [6] were more than 8.00, less than 4.52 and less than 4.52, respectively. The pIC50 was less than 4.52 in assay [3] (setting [8]) and more than 8.00 in assay [4] (Homo sapiens, U-937, Table 37).

In the case of `Cc1cnc(Nc2[nH]nc(-c3ccc(NS(=O)(=O)C(F)F)c(OCc4ccc(F)c(F)c4)c3)c2C(N)=O)cn1` [Compound 291, 3-(3-((3,4-difluoro-benzyl)oxy)-4-((difluoro-methyl)sulfon-amido)phenyl)-5-((5-methyl-pyrazin-2-yl)amino)-1H-pyrazole-4-carboxamide], the negative-log Kd (pKd) is more than 8.00 in assay [2] (Table 35), less than 4.52 in assay [5] and less than 4.52 in assay [6]. In addition, the pIC50 in assay [3] (Table 37, read-out: Off-target effect (IC50 cell-based assay)) is 4.52 to 6.00; in assay [4] (Table 37) it was more than 8.00.

`Cc1ncsc1-c1ccc(CNC(=O)[C@@H]2C[C@@H](O)CN2C(=O)[C@@H](NC(=O)CCCCOc2ccc(Nc3[nH]nc(-c4ccc(NS(=O)(=O)C(F)F)c(OCc5ccc(F)cc5)c4)c3C(N)=O)nc2)C(C)(C)C)cc1` [Compound 1025, 3-[4-(difluoromethanesulfonamido)-3-[(4-fluorophenyl)methoxy]phenyl]-5-{[5-(4-{[(2S)-1-[(2S,4R)-4-hydroxy-2-({[4-(4-methyl-1,3-thiazol-5-yl)phenyl]methyl}carbamoyl)pyrrolidin-1-yl]-3,3-dimethyl-1-oxobutan-2-yl]carbamoyl}butoxy)pyridin-2-yl]amino}-1H-pyrazole-4-carboxamide]: the 50% degradation concentration (DC50) in assay [1] was less than 1 µM. Further, the negative-log IC50 (pIC50) in assay [3] (setting [7]) was less than 5.00; in assay [4] (Homo sapiens, U-937, Table 38), more than 6.00.

On to `Cc1ncsc1-c1ccc(CNC(=O)[C@@H]2C[C@@H](O)CN2C(=O)[C@@H](NC(=O)c2ccc(COc3ccc(Nc4[nH]nc(-c5ccc(NS(=O)(=O)C(F)F)c(O[C@@H](C)c6ccc(F)cc6)c5)c4C(N)=O)nc3)cc2)C(C)(C)C)cc1` [Compound 1030, 3-[4-(difluoromethanesulfonamido)-3-[(1S)-1-(4-fluorophenyl)ethoxy]phenyl]-5-({5-[(4-{[(2S)-1-[(2S,4R)-4-hydroxy-2-({[4-(4-methyl-1,3-thiazol-5-yl)phenyl]methyl}carbamoyl)pyrrolidin-1-yl]-3,3-dimethyl-1-oxobutan-2-yl]carbamoyl}phenyl)methoxy]pyridin-2-yl}amino)-1H-pyrazole-4-carboxamide], for which the 50% degradation concentration (DC50) in assay [1] is less than 1 µM. For the same compound, the negative-log IC50 (pIC50) is less than 5.00 in assay [3] (setting [7]) and more than 6.00 in assay [4] (Homo sapiens, U-937, Table 38).

Usually DC50 stands for the midpoint of the concentration-degradation curve. The term pKd denotes the Kd on a negative log10 scale, so that one unit is a factor of ten. One may read the pIC50 as the IC50 on a negative log10 scale, so that one unit is a factor of ten.
